According to ChEMBL document CHEMBL1139645, “Action of a novel pyrrolo[1,2-c][1.3]benzodiazepine on the viability of Jurkat and neuronal/glial cells” (2005):

Legend:
[1] = Effect of compound on cell viability in non-transformed neuronal/glial cells measured as percent reduction of MTT at […] O.D.; Control value 0.56 %; format: functional, Rattus norvegicus
Jurkat = experiment: Effect of compound on cell viability in human leukemic Jurkat cells measured as percent reduction of MTT at 570 nm O.D.; Control value 0.47 %; format: functional
[2] = Effect of compound on cell viability in non-transformed neuronal/glial cells measured as percent reduction of MTT at 570 nm O.D. and exposure to 100 uM NMDA; Control value 0.56 %; format: functional, Rattus norvegicus
[3] = Effect of compound on cell viability in non-transformed neuronal/glial cells measured as percent reduction of MTT at 570 nm O.D. at 100 uM; Control value 0.56 %; format: functional, Rattus norvegicus

## Nc1ccccc1C(=O)c1ccc[nH]1
[1]
  MTT reduction: 0.65 O.D
Jurkat
  MTT reduction: 0.39 O.D
[2]
  MTT reduction: 0.3 O.D

## SC1=Nc2ccccc2Cc2cccn21
[1]
  MTT reduction: 0.58 O.D
Jurkat
  MTT reduction: 0.22 O.D
[2]
  MTT reduction: 0.17 O.D

## O=c1c2ccccc2nc(S)n2cccc12
[1]
  MTT reduction: 0.62 O.D
Jurkat
  MTT reduction: 0.41 O.D
[2]
  MTT reduction: 0.28 O.D

## Oc1c2nccc-2c(S)nc2ccccc12
[1]
  MTT reduction: 0.55 O.D
Jurkat
  MTT reduction: 0.45 O.D
[2]
  MTT reduction: 0.25 O.D

## Nc1ccccc1Cc1ccc[nH]1
[1]
  MTT reduction: 0.38 O.D
Jurkat
  MTT reduction: 0.34 O.D
[2]
  MTT reduction: 0.22 O.D

## CN[C@H](CC(=O)O)C(=O)O [N-METHYL-D-ASPARTIC ACID (NMDA)]
[3]
  MTT reduction: 0.29 O.D
